Experimental data from patent US11517729B2, “Integrated fiber microneedle device for drug and vaccine delivery” (University of Washington, priority 2018, dated 2022).

Test: Release studies of integrated fiber microneedles in PBS
Assay type: physicochemical
Experimental: A small molecule drug, a model protein, and plasmid DNA were loaded into individual devices and the release kinetics of each were measured. These agents were loaded into an array of 420 needles, with a total device size of 4.2 cm^2. In this experiment, the needles were 350 μm in diameter and 800 μm tall. […] Each agent was successfully loaded into the fiber-microneedle system using a loading of 100 μg for the small molecule, […] for the protein, and 1.1 μg for the DNA. […] This plateau occurred at different percent release for the different agents. The small molecule plateaued at 70% release, the protein plateaued at 35% release, and the plasmid DNA plateaued around 80% release. […]
Data represent release from a single array of integrated fiber microneedles. Complete (100%) release was determined by TFV detected in release media after 84 days. […] 100% release was determined by DNA detected in release media after 25 days.
Microneedle characterization: SEM imaging of electrospun fibers on the two-layer composite microneedle molds and completed microneedles was performed on a JEOL JSM7400F cold field emission scanning electron microscope. […] TFV content was determined by HPLC (Shimadzu Prominence LC20AD UV-HPLC) with a Phenomenex Luna 153 C18 column and LCSolutions software. […] The column was heated to 30° C., and TFV was detected at 259 nm. BSA content was analyzed by the Pierce MicroBCA Assay. […]

C[C@H](Cn1cnc2c(N)ncnc21)OCP(=O)(O)O [TFV, tenofovir]
plateau of percent release (TFV from integrated fiber microneedles into PBS, HPLC, 100% = TFV detected in release media after 84 days, single array): 70% | release profile (from integrated fiber microneedles (array of 420 needles) into PBS): sharp initial burst release followed by a plateau
